According to ChEMBL document CHEMBL1201862, “PubChem BioAssay data set” (2004):
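48-hour exposure; five concentrations; linearly interpolated endpoints. GI50 = concentration required for 50% inhibition of growth.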 The source made the active and inactive calls. Cut-off read from the data, not from the text of the source: active = GI50 up to about 1.1 µM and inactive = higher.

Legend:
Test in all cases: NCI anticancer screen, dose series, 48 h
CCRF-CEM = test system: CCRF-CEM
HCT-116 = test system: HCT-116
HCT-15 = test system: HCT-15
HL-60 = test system: HL-60
HOP-92 = test system: HOP-92
LOX IMVI = test system: LOX IMVI
Malme-3M = test system: Malme-3M
NCI-H460 = test system: NCI-H460
OVCAR-3 = test system: OVCAR-3
OVCAR-5 = test system: OVCAR-5
OVCAR-8 = test system: OVCAR-8
PC-3 = test system: PC-3
SF-268 = test system: SF-268
SF-295 = test system: SF-295
SF-539 = test system: SF-539
SK-MEL-2 = test system: SK-MEL-2
SK-MEL-5 = test system: SK-MEL-5
SNB-75 = test system: SNB-75
UO-31 = test system: UO-31
SR = test system: SR

SMILES	GI50 (CCRF-CEM)	GI50 (HCT-116)	GI50 (HCT-15)	GI50 (HL-60)	GI50 (HOP-92)	GI50 (LOX IMVI)	GI50 (Malme-3M)	GI50 (NCI-H460)	GI50 (OVCAR-3)	GI50 (OVCAR-5)	GI50 (OVCAR-8)	GI50 (PC-3)	GI50 (SF-268)	GI50 (SF-295)	GI50 (SF-539)	GI50 (SK-MEL-2)	GI50 (SK-MEL-5)	GI50 (SNB-75)	GI50 (UO-31)	GI50 (SR)
CCCCn1c(C)c2c(c1C)C(=O)N(CC(O)CN1CCc3ccccc3C1)C2=O (stereo not given)	69.8 µM (inactive)	47.9 µM (inactive)	> 100 µM	98.4 µM (inactive)	> 100 µM (inactive)	49.7 µM (inactive)	93.3 µM (inactive)	86.7 µM (inactive)	67.8 µM (inactive)	> 100 µM (inactive)	> 100 µM (inactive)	56.6 µM (inactive)	> 100 µM (inactive)	42.4 µM (inactive)	69.8 µM (inactive)	0.292 µM (active)	31.5 µM (inactive)	> 100 µM (inactive)	59 µM (inactive)	
CC(=O)OC(Cn1cncn1)(Cn1cncn1)c1ccc(Cl)cc1Cl	> 100 µM (inactive)		> 100 µM	> 100 µM (inactive)	> 100 µM (inactive)	> 100 µM (inactive)		> 100 µM (inactive)	> 100 µM (inactive)	> 100 µM (inactive)	> 100 µM (inactive)	> 100 µM (inactive)	> 100 µM (inactive)	> 100 µM (inactive)	> 100 µM (inactive)	> 100 µM (inactive)	> 100 µM (inactive)	> 100 µM (inactive)	> 100 µM (inactive)	
O=C(c1cccs1)N(C(=O)N1CCCCC1)c1ccccc1	> 100 µM (inactive)	> 100 µM (inactive)	> 100 µM	> 100 µM (inactive)		> 100 µM (inactive)	2.25 µM (inactive)		> 100 µM (inactive)		> 100 µM (inactive)	52.1 µM (inactive)	> 100 µM (inactive)	> 100 µM (inactive)	> 100 µM (inactive)	> 100 µM (inactive)	> 100 µM (inactive)	3.28 µM (inactive)	62.8 µM (inactive)	
NC(=O)C(=O)C1C(=O)N(c2ccccc2)N=C1N (stereo not given)		> 100 µM (inactive)	> 100 µM	> 100 µM (inactive)	> 100 µM (inactive)	> 100 µM (inactive)	> 100 µM (inactive)	> 100 µM (inactive)	> 100 µM (inactive)	> 100 µM (inactive)	> 100 µM (inactive)		> 100 µM (inactive)	> 100 µM (inactive)	> 100 µM (inactive)	> 100 µM (inactive)		> 100 µM (inactive)	> 100 µM (inactive)	> 100 µM (inactive)
CN(C)CC1(C)CC/C(=C\c2ccc3c(c2)OCO3)C1=O (stereo not given)	59.4 µM (inactive)	> 100 µM (inactive)	> 100 µM		> 100 µM (inactive)	> 100 µM (inactive)	> 100 µM (inactive)	> 100 µM (inactive)	> 100 µM (inactive)	> 100 µM (inactive)	> 100 µM (inactive)		> 100 µM (inactive)	> 100 µM (inactive)	> 100 µM (inactive)	> 100 µM (inactive)	> 100 µM (inactive)	> 100 µM (inactive)	> 100 µM (inactive)	45.9 µM (inactive)
CCC/C=C/C=C/C1CC(O)C(O)C(=O)C1CO (stereo not given)	> 100 µM (inactive)	> 100 µM (inactive)	> 100 µM	48.2 µM (inactive)	> 100 µM (inactive)	> 100 µM (inactive)		> 100 µM (inactive)	21.6 µM (inactive)	> 100 µM (inactive)	> 100 µM (inactive)	51.1 µM (inactive)	> 100 µM (inactive)	> 100 µM (inactive)	> 100 µM (inactive)	> 100 µM (inactive)	> 100 µM (inactive)	> 100 µM (inactive)	> 100 µM (inactive)	
NC(N)=NN/C(=C1/N=c2ccc([N+](=O)[O-])cc2=NC1=O)C(O)c1ccco1 (stereo not given)	67.1 µM (inactive)	> 100 µM (inactive)	> 100 µM	35.9 µM (inactive)	> 100 µM (inactive)	> 100 µM (inactive)	> 100 µM (inactive)	> 100 µM (inactive)		> 100 µM (inactive)	> 100 µM (inactive)		> 100 µM (inactive)	> 100 µM (inactive)	> 100 µM (inactive)	> 100 µM (inactive)	> 100 µM (inactive)	> 100 µM (inactive)	64.7 µM (inactive)	> 100 µM (inactive)
Cc1cn(C2CC(O)C(Cn3nncc3Cn3ncc(=O)[nH]c3=O)O2)c(=O)[nH]c1=O (stereo not given)	> 100 µM (inactive)	> 100 µM (inactive)	> 100 µM		> 100 µM (inactive)	> 100 µM (inactive)	> 100 µM (inactive)		> 100 µM (inactive)	> 100 µM (inactive)	> 100 µM (inactive)	> 100 µM (inactive)	> 100 µM (inactive)	> 100 µM (inactive)	> 100 µM (inactive)	> 100 µM (inactive)	> 100 µM (inactive)		> 100 µM (inactive)	
N#CCCC1C(C#N)C2(Cl)CC1(Cl)C(Cl)=C2Cl (stereo not given)	> 10 µM (inactive)	> 10 µM (inactive)	> 10 µM	> 10 µM (inactive)		> 10 µM (inactive)	> 10 µM (inactive)	> 10 µM (inactive)	> 10 µM (inactive)	> 10 µM (inactive)	> 10 µM (inactive)	> 10 µM (inactive)	> 10 µM (inactive)	> 10 µM (inactive)	> 10 µM (inactive)	> 10 µM (inactive)	> 10 µM (inactive)	> 10 µM (inactive)	> 10 µM (inactive)	
CN1NC(c2ccccc2)=C(C#N)C(=O)CC1c1ccc(F)cc1 (stereo not given)	> 100 µM (inactive)	> 100 µM (inactive)	> 100 µM	> 100 µM (inactive)	> 100 µM (inactive)	> 100 µM (inactive)	> 100 µM (inactive)	> 100 µM (inactive)		> 100 µM (inactive)			> 100 µM (inactive)	> 100 µM (inactive)		> 100 µM (inactive)	> 100 µM (inactive)	41.3 µM (inactive)		> 100 µM (inactive)
Cc1[nH]c2ccccc2c1C1Cc2ccccc2N1C(=O)/C(Cl)=C/c1ccccc1 (stereo not given)	> 73.1 µM (inactive)	36.5 µM (inactive)	> 100 µM	98.2 µM (inactive)	> 100 µM (inactive)	> 100 µM (inactive)	> 86.3 µM (inactive)	> 100 µM (inactive)	> 100 µM (inactive)	> 100 µM (inactive)	> 100 µM (inactive)		> 78.9 µM (inactive)	> 31 µM (inactive)	40.9 µM (inactive)	> 91 µM (inactive)	> 100 µM (inactive)	4.65 µM (inactive)	16.3 µM (inactive)	29.2 µM (inactive)
O=C1NC(N/N=C/c2ccccc2)=N/C1=C\c1ccco1	25.6 µM (inactive)	42.9 µM (inactive)	40.6 µM	> 100 µM (inactive)	11.3 µM (inactive)		> 100 µM (inactive)	20.7 µM (inactive)	33.8 µM (inactive)	> 100 µM (inactive)	16.1 µM (inactive)	33.9 µM (inactive)	24.5 µM (inactive)	33.1 µM (inactive)		25.9 µM (inactive)	45.9 µM (inactive)	47.8 µM (inactive)	46.8 µM (inactive)	
CC1(C)CC(=O)C2=C(C1)NC(=S)C(C#N)C2c1ccccc1 (stereo not given)	> 100 µM (inactive)	> 100 µM (inactive)	> 100 µM	> 100 µM (inactive)	> 100 µM (inactive)	> 100 µM (inactive)	> 100 µM (inactive)	> 100 µM (inactive)	> 100 µM (inactive)	> 100 µM (inactive)	> 100 µM (inactive)	> 100 µM (inactive)	> 100 µM (inactive)	> 100 µM (inactive)	> 100 µM (inactive)	> 100 µM (inactive)	> 100 µM (inactive)	> 100 µM (inactive)	> 100 µM (inactive)	
CC1(C)CC2=NO[Se]3=C2C(=NO3)C1	3.06 µM (inactive)	0.485 µM (active)	0.811 µM	2.22 µM (inactive)	2.63 µM (inactive)	1.6 µM (inactive)		1.34 µM (inactive)	1.68 µM (inactive)	5.11 µM (inactive)	2.38 µM (inactive)	0.394 µM (active)	5.3 µM (inactive)	2.36 µM (inactive)	2.15 µM (inactive)	5.78 µM (inactive)	1.81 µM (inactive)	2.68 µM (inactive)	2.98 µM (inactive)	
Cc1ccc(/N=N/c2c(C)nn(-c3ccccc3)c2-c2ccccc2)c(Br)c1	21 µM (inactive)	12.6 µM (inactive)	28.2 µM	4.3 µM (inactive)	40 µM (inactive)	37.2 µM (inactive)	> 100 µM (inactive)	31.8 µM (inactive)	> 100 µM (inactive)		> 100 µM (inactive)		> 100 µM (inactive)	86.5 µM (inactive)	20.2 µM (inactive)	> 100 µM (inactive)		> 100 µM (inactive)	> 100 µM (inactive)	6.21 µM (inactive)
COc1cc(/C=C2/C(=O)N(C(=O)OCC(C)C)C(Cc3cc(OC)c(OC)c(C)c3OC)C(=O)N2Cc2ccccc2)c(OC)c(C)c1OC (stereo not given)	21.3 µM (inactive)	20.2 µM (inactive)		8.2 µM (inactive)	4.74 µM (inactive)	> 100 µM (inactive)	> 100 µM (inactive)	30.5 µM (inactive)	79.4 µM (inactive)	> 100 µM (inactive)	> 100 µM (inactive)		> 100 µM (inactive)	62.7 µM (inactive)	> 100 µM (inactive)	94.6 µM (inactive)	74.6 µM (inactive)	> 100 µM (inactive)	11.6 µM (inactive)	25.1 µM (inactive)
